Data reported in patent US12077503B2, “Substituted cyclic amides and their use as herbicides” (FMC CORPORATION, priority 2015, dated 2024).

How the values were obtained:
Assay type in all cases: in vivo
[1] = system: ivy-leaved morning glory (Ipomoea hederacea); experiment: Test G Pre-Emergence Protocol; settings: Ipomoea, pre-emergence, 312 h, evaluated after 13 days; for pest or weed control at 62.5 g/ha: 62.5 g ai/ha, 100=total damage to plant, 0=no damage to plant, read-out: plant damage rating, Morningglory, Ivy-leaved
In short: (§1)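 Visual injury (0–100) at day 13 after a single pre-emergence spray. Rates: 15.625, 62.5, 250 g/ha in acetone–water 50:50 with 0.5% Tween 20. Growth conditions: 24/16° C, 14 h light, 65% humidity.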

[2] = system: giant foxtail (Setaria faberi); experiment: Test G Pre-Emergence Protocol; settings: Setaria faberi, pre-emergence, 312 h, evaluated after 13 days; for pest or weed control at 15.625 g/ha: 15.625 g ai/ha; for pest or weed control at 15.625 g/ha / pest or weed control at 250 g/ha: read-out: Foxtail, Giant damage rating (100=total damage to plant; 0=no damage to plant); for pest or weed control at 62.5 g/ha: 62.5 g ai/ha, 100=total damage to plant, 0=no damage to plant, read-out: plant damage rating, Foxtail, Giant; for pest or weed control at 250 g/ha: 250 g ai/ha
In short: as §1

[3] = system: barnyardgrass (Echinochloa crus-galli); experiment: Test G Pre-Emergence Protocol; settings: Echinochloa crus-galli, pre-emergence, 312 h, evaluated after 13 days; for pest or weed control at 15.625 g/ha: 15.625 g ai/ha, read-out: Barnyard grass damage rating (100=total damage to plant; 0=no damage to plant); for pest or weed control at 62.5 g/ha: 62.5 g ai/ha, 100=total damage to plant, 0=no damage to plant, read-out: plant damage rating, Barnyardgrass; for pest or weed control at 250 g/ha: 250 g ai/ha, read-out: Barnyardgrass damage rating (100=total damage to plant; 0=no damage to plant)
In short: as §1

corn (Zea mays) [4] = experiment: Test G Pre-Emergence Protocol; settings: Zea mays, pre-emergence, 312 h, evaluated after 13 days; for plant injury at 15.625 g/ha: 15.625 g ai/ha; for plant injury at 15.625 g/ha / plant injury at 250 g/ha: read-out: Corn damage rating (100=total damage to plant; 0=no damage to plant); for plant injury at 62.5 g/ha: 62.5 g ai/ha, 100=total damage to plant, 0=no damage to plant, read-out: plant damage rating, Corn; for plant injury at 250 g/ha: 250 g ai/ha
In short: as §1

[5] = system: velvetleaf (Abutilon theophrasti); experiment: Test G Pre-Emergence Protocol; settings: Abutilon theophrasti, pre-emergence, 312 h, evaluated after 13 days; for pest or weed control at 15.625 g/ha: 15.625 g ai/ha; for pest or weed control at 15.625 g/ha / pest or weed control at 250 g/ha: read-out: Velvetleaf damage rating (100=total damage to plant; 0=no damage to plant); for pest or weed control at 62.5 g/ha: 62.5 g ai/ha, 100=total damage to plant, 0=no damage to plant, read-out: plant damage rating, Velvetleaf; for pest or weed control at 250 g/ha: 250 g ai/ha
In short: as §1

[6] = system: redroot pigweed (Amaranthus retroflexus); experiment: Test G Pre-Emergence Protocol; settings: Amaranthus retroflexus, pre-emergence, 312 h, evaluated after 13 days; for pest or weed control at 15.625 g/ha: 15.625 g ai/ha; for pest or weed control at 15.625 g/ha / pest or weed control at 250 g/ha: read-out: Pigweed, Redroot damage rating (100=total damage to plant; 0=no damage to plant); for pest or weed control at 62.5 g/ha: 62.5 g ai/ha, 100=total damage to plant, 0=no damage to plant, read-out: plant damage rating, Pigweed, Redroot; for pest or weed control at 250 g/ha: 250 g ai/ha
In short: as §1

[7] = system: ivy-leaved morning glory (Ipomoea hederacea); experiment: Test G Post-Emergence Protocol; settings: Ipomoea, post-emergence, 312 h; for pest or weed control at 15.625 g/ha: 15.625 g ai/ha, evaluated after 13 days (100=total damage to plant; 0=no damage to plant), read-out: Morningglory, Ivy-leaved damage rating; for pest or weed control at 62.5 g/ha: 62.5 g ai/ha, read-out: Morningglory, Ivy-leaved damage rating (100=total damage to plant; 0=no damage to plant); for pest or weed control at 62.5 g/ha / pest or weed control at 250 g/ha: evaluated after 13 days; for pest or weed control at 250 g/ha: 250 g ai/ha, read-out: damage to plant, Morningglory, Ivy-leaved (100=total damage to plant; 0=no damage to plant)
In short: (§2)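 Eight days post-sowing, plants received a spray of test compound (acetone/water 50:50, 0.5% Tween 20) at 15.625, 62.5 or 250 g/ha. Glasshouse regime thereafter: 24/16 °C, 14 h light, 65% humidity. Assessment after 13 days on a 0–100 damage scale.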

[8] = system: giant foxtail (Setaria faberi); experiment: Test G Post-Emergence Protocol; settings: Setaria faberi, post-emergence, 312 h; for pest or weed control at 15.625 g/ha: 15.625 g ai/ha, evaluated after 13 days (100=total damage to plant; 0=no damage to plant), read-out: Foxtail, Giant damage rating; for pest or weed control at 62.5 g/ha: 62.5 g ai/ha, read-out: Foxtail, Giant damage rating (100=total damage to plant; 0=no damage to plant); for pest or weed control at 62.5 g/ha / pest or weed control at 250 g/ha: evaluated after 13 days; for pest or weed control at 250 g/ha: 250 g ai/ha, read-out: damage to plant, Foxtail, Giant (100=total damage to plant; 0=no damage to plant)
In short: as §2

[9] = system: barnyardgrass (Echinochloa crus-galli); experiment: Test G Post-Emergence Protocol; settings: Echinochloa crus-galli, post-emergence, 312 h; for pest or weed control at 15.625 g/ha: 15.625 g ai/ha, evaluated after 13 days (100=total damage to plant; 0=no damage to plant), read-out: Barnyardgrass damage rating; for pest or weed control at 62.5 g/ha: 62.5 g ai/ha, read-out: Barnyardgrass damage rating (100=total damage to plant; 0=no damage to plant); for pest or weed control at 62.5 g/ha / pest or weed control at 250 g/ha: evaluated after 13 days; for pest or weed control at 250 g/ha: 250 g ai/ha, read-out: damage to plant, Barnyardgrass (100=total damage to plant; 0=no damage to plant)
In short: as §2

corn (Zea mays) [10] = experiment: Test G Post-Emergence Protocol; settings: Zea mays, post-emergence, 312 h; for plant injury at 15.625 g/ha: 15.625 g ai/ha, evaluated after 13 days (100=total damage to plant; 0=no damage to plant), read-out: Corn damage rating; for plant injury at 62.5 g/ha: 62.5 g ai/ha, read-out: Corn damage rating (100=total damage to plant; 0=no damage to plant); for plant injury at 62.5 g/ha / plant injury at 250 g/ha: evaluated after 13 days; for plant injury at 250 g/ha: 250 g ai/ha, read-out: damage to plant, Corn (100=total damage to plant; 0=no damage to plant)
In short: as §2

[11] = system: velvetleaf (Abutilon theophrasti); experiment: Test G Post-Emergence Protocol; settings: Abutilon theophrasti, post-emergence, 312 h; for pest or weed control at 15.625 g/ha: 15.625 g ai/ha, evaluated after 13 days (100=total damage to plant; 0=no damage to plant), read-out: Velvetleaf damage rating; for pest or weed control at 62.5 g/ha: 62.5 g ai/ha, read-out: Velvetleaf damage rating (100=total damage to plant; 0=no damage to plant); for pest or weed control at 62.5 g/ha / pest or weed control at 250 g/ha: evaluated after 13 days; for pest or weed control at 250 g/ha: 250 g ai/ha, read-out: damage to plant, Velvetleaf (100=total damage to plant; 0=no damage to plant)
In short: as §2

[12] = system: redroot pigweed (Amaranthus retroflexus); experiment: Test G Post-Emergence Protocol; settings: Amaranthus retroflexus, post-emergence, 312 h; for pest or weed control at 15.625 g/ha: 15.625 g ai/ha, evaluated after 13 days (100=total damage to plant; 0=no damage to plant), read-out: Pigweed, Redroot damage rating; for pest or weed control at 62.5 g/ha: 62.5 g ai/ha, read-out: Pigweed, Redroot damage rating (100=total damage to plant; 0=no damage to plant); for pest or weed control at 62.5 g/ha / pest or weed control at 250 g/ha: evaluated after 13 days; for pest or weed control at 250 g/ha: 250 g ai/ha, read-out: damage to plant, Pigweed, Redroot (100=total damage to plant; 0=no damage to plant)
In short: as §2

Row | SMILES | pest or weed control at 62.5 g/ha [1] | pest or weed control at 15.625 g/ha [2] | pest or weed control at 62.5 g/ha [2] | pest or weed control at 250 g/ha [2] | pest or weed control at 15.625 g/ha [3] | pest or weed control at 62.5 g/ha [3] | pest or weed control at 250 g/ha [3] | plant injury at 15.625 g/ha (corn (Zea mays) [4]) | plant injury at 62.5 g/ha (corn (Zea mays) [4]) | plant injury at 250 g/ha (corn (Zea mays) [4]) | pest or weed control at 15.625 g/ha [5] | pest or weed control at 62.5 g/ha [5] | pest or weed control at 250 g/ha [5] | pest or weed control at 15.625 g/ha [6] | pest or weed control at 62.5 g/ha [6] | pest or weed control at 250 g/ha [6] | pest or weed control at 15.625 g/ha [7] | pest or weed control at 62.5 g/ha [7] | pest or weed control at 250 g/ha [7] | pest or weed control at 15.625 g/ha [8] | other results
1 | COc1ccc(CNC(=O)[C@H]2C(=O)N(C)C[C@@H]2c2ccc(C(F)(F)F)cc2)c(OC)c1 (racemic) [Compound 1479] | 0% | 0% | 20% | 20% | 0% | 0% | 10% | 0% | 0% | 0% | 0% | 0% | 10% | 0% | 0% | 0% | 0% | 0% | 0% | 0% | pest or weed control at 15.625 g/ha ([1]; 15.625 g ai/ha, read-out: Morning-glory, Ivy-leaved damage rating (100=total damage to plant; 0=no damage to plant)): 0%; pest or weed control at 250 g/ha ([1]; 250 g ai/ha, read-out: Morningglory, Ivy-leaved damage rating (100=total damage to plant; 0=no damage to plant)): 0%; pest or weed control at 62.5 g/ha [8]: 20%; pest or weed control at 250 g/ha [8]: 0%; pest or weed control at 15.625 g/ha [9]: 0%; pest or weed control at 62.5 g/ha [9]: 20%; pest or weed control at 250 g/ha [9]: 20%; plant injury at 15.625 g/ha (corn (Zea mays) [10]): 10%; plant injury at 62.5 g/ha (corn (Zea mays) [10]): 10%; plant injury at 250 g/ha (corn (Zea mays) [10]): 10%; pest or weed control at 15.625 g/ha [11]: 0%; pest or weed control at 62.5 g/ha [11]: 0%; pest or weed control at 250 g/ha [11]: 0%; pest or weed control at 15.625 g/ha [12]: 0%; pest or weed control at 62.5 g/ha [12]: 0%; pest or weed control at 250 g/ha [12]: 20%
2 | CN1C[C@H](c2ccc3ccccc3c2)[C@@H](C(=O)Nc2cccc(F)c2F)C1=O (racemic) [Compound 1501] | 0% | 0% | 70% | 80% | 0% | 50% | 60% | 0% | 0% | 0% | 0% | 0% | 0% | 0% | 0% | 0% | 0% | 0% | 0% | 40% | pest or weed control at 62.5 g/ha [8]: 60%; pest or weed control at 250 g/ha [8]: 60%; pest or weed control at 15.625 g/ha [9]: 10%; pest or weed control at 62.5 g/ha [9]: 50%; pest or weed control at 250 g/ha [9]: 60%; plant injury at 15.625 g/ha (corn (Zea mays) [10]): 10%; plant injury at 62.5 g/ha (corn (Zea mays) [10]): 20%; plant injury at 250 g/ha (corn (Zea mays) [10]): 30%; pest or weed control at 15.625 g/ha [11]: 0%; pest or weed control at 62.5 g/ha [11]: 0%; pest or weed control at 250 g/ha [11]: 0%; pest or weed control at 15.625 g/ha [12]: 0%; pest or weed control at 62.5 g/ha [12]: 0%; pest or weed control at 250 g/ha [12]: 0%
